Reference: ChEMBL document CHEMBL4325865, “Optimization of a fragment linking hit toward Dengue and Zika virus NS5 methyltransferases inhibitors” (Eur J Med Chem, 2019)
The source made the active and inactive calls. No cut-off for these calls is given here.

Legend:
Nonstructural protein 5 = Nonstructural protein 5 (Dengue virus, UniProt V5TFZ2); test: Inhibition of DENV3 2'-O-MTase assessed as reduction in [3H]AdoMet transfer on to capped GpppAC4 RNA after 30 mins by microbeta liquid scintillation counting method; parameters: species or system dengue virus type 3
Chain of Nonstructural protein 5 (V5TFZ2 whole entry): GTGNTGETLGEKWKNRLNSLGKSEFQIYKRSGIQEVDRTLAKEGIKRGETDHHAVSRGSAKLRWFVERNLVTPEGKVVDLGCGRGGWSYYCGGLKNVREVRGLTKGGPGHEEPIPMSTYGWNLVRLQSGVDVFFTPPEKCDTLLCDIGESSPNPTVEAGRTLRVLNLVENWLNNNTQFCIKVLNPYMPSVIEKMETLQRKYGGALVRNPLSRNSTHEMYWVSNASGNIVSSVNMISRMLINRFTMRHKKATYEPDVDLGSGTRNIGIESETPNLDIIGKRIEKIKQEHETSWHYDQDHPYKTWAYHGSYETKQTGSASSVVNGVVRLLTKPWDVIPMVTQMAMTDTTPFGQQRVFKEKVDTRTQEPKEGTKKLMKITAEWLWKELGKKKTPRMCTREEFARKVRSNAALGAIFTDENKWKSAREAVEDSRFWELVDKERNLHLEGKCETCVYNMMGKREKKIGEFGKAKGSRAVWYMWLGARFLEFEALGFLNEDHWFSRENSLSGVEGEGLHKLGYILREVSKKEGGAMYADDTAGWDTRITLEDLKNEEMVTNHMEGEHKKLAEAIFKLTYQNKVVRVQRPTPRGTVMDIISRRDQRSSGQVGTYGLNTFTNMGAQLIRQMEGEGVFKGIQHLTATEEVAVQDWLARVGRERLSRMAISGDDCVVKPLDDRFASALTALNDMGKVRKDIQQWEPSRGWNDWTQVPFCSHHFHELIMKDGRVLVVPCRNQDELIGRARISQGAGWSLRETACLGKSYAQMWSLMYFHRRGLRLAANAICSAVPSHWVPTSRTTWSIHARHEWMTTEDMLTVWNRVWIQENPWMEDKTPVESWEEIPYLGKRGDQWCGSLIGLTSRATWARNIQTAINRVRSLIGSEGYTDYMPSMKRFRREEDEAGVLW

Genome polyprotein [1] = target: Genome polyprotein (Zika virus, UniProt Q32ZE1); test: Inhibition of ZIKV 2'-O-MTase assessed as reduction in [3H]AdoMet transfer on to capped GpppAC4 RNA after 30 mins by microbeta liquid scintillation counting method
Chain of Genome polyprotein (Zika virus, UniProt Q32ZE1) (Q32ZE1 2517-3419 limits assumed): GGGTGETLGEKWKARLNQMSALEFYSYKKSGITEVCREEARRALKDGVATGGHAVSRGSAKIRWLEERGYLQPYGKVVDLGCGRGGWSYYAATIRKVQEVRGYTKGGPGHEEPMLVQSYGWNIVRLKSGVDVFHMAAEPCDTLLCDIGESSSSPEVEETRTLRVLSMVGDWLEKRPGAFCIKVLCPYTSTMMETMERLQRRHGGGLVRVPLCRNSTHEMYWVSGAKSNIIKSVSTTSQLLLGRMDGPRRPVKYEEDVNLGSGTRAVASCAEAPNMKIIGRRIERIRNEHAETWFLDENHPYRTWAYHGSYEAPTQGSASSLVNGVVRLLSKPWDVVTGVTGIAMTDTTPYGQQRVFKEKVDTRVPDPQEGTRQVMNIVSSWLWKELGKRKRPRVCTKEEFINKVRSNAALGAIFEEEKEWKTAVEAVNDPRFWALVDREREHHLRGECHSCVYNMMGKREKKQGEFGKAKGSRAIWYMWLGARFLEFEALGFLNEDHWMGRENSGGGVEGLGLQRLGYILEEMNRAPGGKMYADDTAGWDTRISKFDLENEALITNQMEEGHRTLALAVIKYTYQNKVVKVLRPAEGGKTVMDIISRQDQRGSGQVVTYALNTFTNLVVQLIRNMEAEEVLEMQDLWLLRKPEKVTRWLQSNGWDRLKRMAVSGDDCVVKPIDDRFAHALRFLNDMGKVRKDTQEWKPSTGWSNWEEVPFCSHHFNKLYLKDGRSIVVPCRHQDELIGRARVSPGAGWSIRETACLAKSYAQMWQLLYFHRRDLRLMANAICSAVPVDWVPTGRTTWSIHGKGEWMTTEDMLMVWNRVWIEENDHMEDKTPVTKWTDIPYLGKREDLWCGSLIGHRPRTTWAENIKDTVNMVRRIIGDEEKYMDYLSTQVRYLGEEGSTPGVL

dengue virus type 2 = test: Antiviral activity against DENV2 CNR 25679 infected in African green monkey Vero E6 cells assessed as reduction in viral replication up to 20 uM by RT-PCR analysis; type: functional, organism-based; conditions: Vero C1008
Zika virus = test: Antiviral activity against ZIKV H/PF/2013 infected in African green monkey Vero E6 cells assessed as reduction in viral replication up to 20 uM by RT-PCR analysis; type: functional, organism-based; conditions: Vero C1008
[2] = Cytotoxicity against African green monkey Vero E6 cells; type: cell-based; conditions: chlorocebus sabaeus, Vero E6 cells (Vero C1008)
Genome polyprotein [3] = target: Genome polyprotein (West Nile virus, UniProt P06935); test: Inhibition of WNV 2'-O-MTase assessed as reduction in [3H]AdoMet transfer on to capped GpppAC4 RNA after 30 mins by microbeta liquid scintillation counting method
Chain of Genome polyprotein (West Nile virus, UniProt P06935) (P06935 2526-3430 limits assumed): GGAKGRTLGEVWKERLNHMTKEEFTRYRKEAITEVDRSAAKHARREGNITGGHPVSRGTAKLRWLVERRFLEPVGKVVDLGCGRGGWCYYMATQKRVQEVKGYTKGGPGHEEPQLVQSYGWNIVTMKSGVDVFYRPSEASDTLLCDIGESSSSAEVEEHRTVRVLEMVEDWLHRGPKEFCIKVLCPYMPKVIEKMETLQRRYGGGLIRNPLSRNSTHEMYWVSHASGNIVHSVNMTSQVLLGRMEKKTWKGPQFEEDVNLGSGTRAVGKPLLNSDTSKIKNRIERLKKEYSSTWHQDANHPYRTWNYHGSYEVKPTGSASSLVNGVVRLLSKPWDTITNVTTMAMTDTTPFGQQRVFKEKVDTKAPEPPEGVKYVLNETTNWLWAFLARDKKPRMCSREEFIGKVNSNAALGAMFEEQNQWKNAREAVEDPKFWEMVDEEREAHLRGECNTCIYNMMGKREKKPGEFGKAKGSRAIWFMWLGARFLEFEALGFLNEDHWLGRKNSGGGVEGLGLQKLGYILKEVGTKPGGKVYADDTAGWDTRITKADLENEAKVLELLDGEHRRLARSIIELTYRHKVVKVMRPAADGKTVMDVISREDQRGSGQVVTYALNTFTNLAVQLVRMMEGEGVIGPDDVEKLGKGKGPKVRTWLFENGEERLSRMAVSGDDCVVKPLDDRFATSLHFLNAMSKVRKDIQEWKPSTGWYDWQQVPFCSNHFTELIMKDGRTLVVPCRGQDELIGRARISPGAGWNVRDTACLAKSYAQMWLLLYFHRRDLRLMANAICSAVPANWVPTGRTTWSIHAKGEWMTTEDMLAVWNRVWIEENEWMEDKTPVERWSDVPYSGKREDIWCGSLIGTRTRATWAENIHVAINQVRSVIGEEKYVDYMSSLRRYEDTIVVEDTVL

Vero C1008 = test: Cytotoxicity against African green monkey Vero E6 cells up to 100 uM; type: cell-based; conditions: chlorocebus sabaeus

IC50 (Nonstructural protein 5)	IC50 (Genome polyprotein [1])	IC50 (Genome polyprotein [3])	Structure (SMILES)	Activity (dengue virus type 2)	Activity (Zika virus)	CC50 [2]	Activity (Vero C1008)
435 µM	87 µM	51 to 299 µM	Nc1cc(Cl)ccc1NC(=O)Nc1ccc(S(=O)(=O)Nc2ccc(C(=O)O)cc2)cc1				
369 µM	33 µM	51 to 299 µM	Nc1cc(Cl)ccc1NC(=O)Nc1cccc(S(=O)(=O)Oc2ccc(C(=O)O)cc2)c1				
304 µM	95 µM		Nc1cc(C(F)(F)F)ccc1NC(=O)Nc1cccc(S(=O)(=O)NCc2cccc(C(=O)O)c2)c1				
144 µM	135 µM		Nc1cc(C(F)(F)F)ccc1NC(=O)Nc1cccc(S(=O)(=O)Nc2ccc(CC(=O)O)cc2)c1				
452 µM	221 µM	51 to 299 µM	Nc1cc(Cl)ccc1NC(=O)Nc1cccc(S(=O)(=O)Nc2ccc(C(=O)O)cc2)c1				
368 µM	31 µM	51 to 299 µM	Nc1cc(Cl)ccc1NC(=O)Nc1ccc(S(=O)(=O)Oc2ccc(C(=O)O)cc2)cc1				
174 µM	61 µM		Nc1cc(C(F)(F)F)ccc1NC(=O)Nc1ccc(S(=O)(=O)NCc2cccc(C(=O)O)c2)cc1	inactive	inactive		Non-Toxic
366 µM	122 µM		Nc1cc(C(F)(F)F)ccc1NC(=O)Nc1cccc(S(=O)(=O)NCc2ccc(C(=O)O)cc2)c1				
276 µM	111 µM		Nc1cc(C(F)(F)F)ccc1NC(=O)Nc1ccc(S(=O)(=O)Oc2cccc(CC(=O)O)c2)cc1				
91 µM	24 µM	51 to 299 µM	Nc1cc(C(F)(F)F)ccc1NC(=O)Nc1cccc(S(=O)(=O)Nc2ccc(C(=O)O)cc2)c1				
110 µM	67 µM	51 to 299 µM	Nc1cc(C(F)(F)F)ccc1NC(=O)Nc1ccc(S(=O)(=O)Nc2ccc(C(=O)O)cc2)cc1				

Further lines, the compound ahead of its results:

Structure (SMILES)	IC50 (Nonstructural protein 5)	IC50 (Genome polyprotein [1])	IC50 (Genome polyprotein [3])	Activity (dengue virus type 2)	Activity (Zika virus)	CC50 [2]	Activity (Vero C1008)
O=C(O)Cc1cccc(OS(=O)(=O)c2ccc(NC(=O)Nc3ccc(C(F)(F)F)cc3[N+](=O)[O-])cc2)c1	26 µM	28 µM		inactive	inactive	37.5 µM	
CN1CCC(CNS(=O)(=O)c2ccc(NC(=O)Nc3ccc(C(F)(F)F)cc3N)cc2)C1 (stereo not drawn)	400 µM	400 µM					
O=C(Nc1ccc(S(=O)(=O)NCc2cccc(C(=O)O)c2)cc1)Nc1ccc(C(F)(F)F)cc1[N+](=O)[O-]	145 µM	83 µM		inactive	inactive	70 µM	
COC(=O)CCCNS(=O)(=O)c1cccc(NC(=O)Nc2ccc(C(F)(F)F)cc2[N+](=O)[O-])c1	400 µM	400 µM					
O=C(Nc1cccc(S(=O)(=O)NCc2cccc(C(=O)O)c2)c1)Nc1ccc(C(F)(F)F)cc1[N+](=O)[O-]	400 µM	136 µM					
Nc1cc(C(F)(F)F)ccc1NC(=O)Nc1cccc(S(=O)(=O)NCCCC(=O)O)c1	342 µM	132 µM					
Nc1cc(C(F)(F)F)ccc1NC(=O)Nc1ccc(S(=O)(=O)Oc2cccc(CC(=O)Oc3cccc(CC(=O)O)c3)c2)cc1	24 µM	19 µM		inactive	inactive		Non-Toxic
CN1CCC(CNS(=O)(=O)c2ccc(NC(=O)Nc3ccc(C(F)(F)F)cc3[N+](=O)[O-])cc2)C1 (stereo not drawn)	400 µM	400 µM					
O=C(O)Cc1ccc(NS(=O)(=O)c2cccc(NC(=O)Nc3ccc(C(F)(F)F)cc3[N+](=O)[O-])c2)cc1	181 µM	185 µM					
